Earlier results as cited in patent US20210363254A1, “PHARMACEUTICAL COMBINATIONS” (Novartis AG, priority 2018, published 2021).

Test system: renal cell carcinoma (RCC)
Settings: RCC patients beyond first-line therapy; cited from earlier work

Q: Which results are given for “Nivolumab: inhibitor of the PD-1/PD-L1 interaction approved for use in RCC”?
A: OS benefit compared with everolimus: 5.4 months; median OS: 25 months
